These results are taken from patent US10718769B2, “Compounds comprising one or more hydrophobic domains and a hydrophilic domain comprising peg moieties, useful for binding cells” (Roche Diagnostics Operations, Inc., priority 2013, dated 2020).

Experiment [1] deals with Hela. Description: Labelling of cells using compounds of the invention. The format is cell-based. The conditions noted are these: * one cell stained weakly. The text has this:
(§1) 2. Labelling of Cells Using Compounds of the Invention

Experiment [2] deals with COS 7. The experiment is described as above. The format is cell-based.
Description: as §1

The subject of experiment [3] is U937. The description is as above. The format is cell-based.
Description: as §1

Experiment [4] concerns CHO. The description is as above. The format is cell-based.
Description: as §1

Experiment [5] concerns NIH 3T3. The experiment is described as above. The conditions noted are these: * one cell not stained. The format is cell-based.
Description: as §1

The subject of experiment [6] is Jurkats. The description is as above. The format is cell-based.
Description: as §1

Experiment [7] deals with Epithelial cells. Described as above. The format is cell-based.
Description: as §1

For experiment [8], the system named is MDA-MB468. The description is as above. The format is cell-based.
Description: as §1

The test system of experiment [9] is Jurkat cells. As to conditions: centrifugation 20 min, 500×g; within 5.5 h incubation with molecule. The protocol:
Respective columns from left: 1: 10 min incubation with molecule. 2: 1 h incubation with molecule. 3: 3,5 h incubation with molecule. 4: 5.5 h min incubation with molecule. Following molecules were tested: 1255: 3′-(Myristic acid)2-PEG2000-dT-Biotin-TEG-5′ INVERS. 1234: 5′-(Cholesteryl-TEG)2-Spacer C18-dT-Biotin-TEG-3′; 1248: 3′-(Cholesteryl-TEG)2-PEG2000-Fluos-Biotin-TEG-5′ INVERS; 1254: 3′-(Cholesteryl-TEG)2-SpacerC18-Fluos-Biotin-TEG-5′ INVERS. […] Centrifugation characteristics: 20 min, 500×g.
(§2) Following molecules were tested: • 1255: 3′-(Myristic acid)2-PEG2000-dT-Biotin-TEG-5′ INVERS • 1234: 5′-(Cholesteryl-TEG)2-Spacer C18-dT-Biotin-TEG-3′ • 1248: 3′-(Cholesteryl-TEG)2-PEG2000-Fluos-Biotin-TEG-5′ INVERS • 1254: 3′-(Cholesteryl-TEG)2-SpacerC18-Fluos-Biotin-TEG-5′ INVERS
(§3) Centrifugation characteristics: 20 min, 500×g.

For experiment [10], the system named is white blood cells (WBCs). The conditions noted are these: for WBC per well: 300 000 WBCs/well. The protocol:
Aim of this experiment: Testing of the white blood cell immobilization on a streptavidin-coated surface using different molecules of the invention. In particular, the performance of a single cholesterol-molecule and different dual-linker molecules (i.e. containing two hydrophobic moieties) was tested. In detail, immobilization of white blood cells (WBCs) on a Streptavidin-coated surface using different linker molecules was tested on a 12-well plate: 300 000 WBCs/well. This was followed by the measurement of the cell recovery rate after immobilization and washing of the cells using the Cellavista instrument (10× Nuclei Operator s9s5).

Experiment [11] concerns MDA-MB468 cells. The conditions noted are these: centrifugation 20 min, 500×g; within 5 h incubation with molecule. The protocol: Respective columns from left: 1: 10 min incubation with molecule. 2: 1 h incubation with molecule. 3: 3 h incubation with molecule. 4: 5 h min incubation with molecule. Following compounds for use according to the invention were tested: 1234: 5′-(Cholesteryl-TEG)2-Spacer C18-dT-Biotin-TEG-3′; 1255: 3′-(Myristic acid)2-PEG2000-dT-Biotin-TEG-5′ INVERS. […] Centrifugation characteristics: 20 min, 500×g.
Following compounds of the invention were tested: • 1234: 5′-(Cholesteryl-TEG)2-Spacer C18-dT-Biotin-TEG-3′ • 1255: 3′-(Myristic acid)2-PEG2000-dT-Biotin-TEG-5′ INVERS
as §3

The test system of experiment [12] is WBC. Description: Immobilization of cells, recovery rate of cells (Example 3 A and D). The format is cell-based. The conditions noted are these: WBCs.
Description: In the following experiment, the recovery rate of cells was determined.
In experiment [13] the test system is WBC. Description: WBC recovery rate after centrifugation (stabilization of cells, Example 5). The format is cell-based. The conditions noted are these: centrifugation 20 min. The protocol: (§4) Centrifugation characteristics: 10 min, 300×g.
as §4
The respective left, middle and right columns per assay represent different Experimenters 1, 2 and 3. […] Centrifugation characteristics: 10 min, 300×g. Molecule: Cholesteryl-TEG-Cholesteryl-TEG-(SpacerC18)7-Fluos-Biotin-TEG.
Following molecules were tested: 1234: 5′-(Cholesteryl-TEG)2-Spacer C18-dT-Biotin-TEG-3′; 1248: 3′-(Cholesteryl-TEG)2-PEG2000-Fluos-Biotin-TEG-5′ INVERS; 1254: 3′-(Cholesteryl-TEG)2-SpacerC18-Fluos-Biotin-TEG-5′ INVERS; 1255: 3′-(Myristic acid)2-PEG2000-dT-Biotin-TEG-5′ INVERS. […] Centrifugation characteristics: 20 min, 300×g. Respective left column: 10 min incubation with molecule. Respective middle column: 1 h min incubation with molecule. Respective right column: 2 h incubation with molecule.
Following molecules were tested: 1255: 3′-(Myristic acid)2-PEG2000-dT-Biotin-TEG-5′ INVERS; 1234: 5′-(Cholesteryl-TEG)2-Spacer C18-dT-Biotin-TEG-3′; 1248: 3′-(Cholesteryl-TEG)2-PEG2000-Fluos-Biotin-TEG-5′ INVERS; 1254: 3′-(Cholesteryl-TEG)2-SpacerC18-Fluos-Biotin-TEG-5′ INVERS. […] Centrifugation characteristics: 20 min, 500×g. Respective left column: 10 min incubation with molecule. Respective middle column: 1 h min incubation with molecule. Respective right column: 3 h incubation with molecule.
Following molecules were tested: 1255: 3′-(Myristic acid)2-PEG2000-dT-Biotin-TEG-5′ INVERS; 1234: 5′-(Cholesteryl-TEG)2-Spacer C18-dT-Biotin-TEG-3′; 1248: 3′-(Cholesteryl-TEG)2-PEG2000-Fluos-Biotin-TEG-5′ INVERS; 1254: 3′-(Cholesteryl-TEG)2-SpacerC18-Fluos-Biotin-TEG-5′ INVERS. […] Centrifugation characteristics: 20 min, 1000×g. Respective left column: 10 min incubation with molecule. Respective middle column: 1 h min incubation with molecule. Respective right column: 2 h incubation with molecule.
The effect of compounds of the invention on stabilizing cells and on immobilization was determined.
Centrifugation characteristics: 10 min, 300×g. A: Choleseryl-TEG-Cholesteryl-TEG-(SpacerC18)7-Fluos-Biotin-TEG.
Centrifugation characteristics: 10 min, 300×g. Molecule: Cholesteryl-TEG-Cholesteryl-TEG-(SpacerC18)7-Fluos-Biotin-TEG.
Centrifugation characteristics: 20 min, 300×g.
as §2

Experiment [14] deals with WBCs. Briefly: Labelling of cells using compounds of the invention. The format is cell-based.
Description: as §1

Where [15] appears, read: Sample 2, compound concentration: 100 pmol/10e6 WBCs.
[16] abbreviates: Sample 2, compound concentration: 1 nmol/10e6 WBCs.

“And” between values parts separate entries of the source, which are not always exact repeats. Identical values can stand only once. Like-named read-outs stand apart in the source and are kept apart here.

“5′-CholesterylTEG-CholesterylTEG-PEG2000-Fluos-3′ [BMO 29.891133]”: in [1], the “Labelling (staining) of Hela” value is given as “√”. Also, the “Labelling (staining) of COS 7” value in experiment [2] is listed as “√”. The “Labelling (staining) of U937” value in experiment [3] is reported as “√”. The “Labelling (staining) of CHO” value in [4] is “√”. Moreover, the “Labelling (staining) of NIH 3T3” value in [5] was “√”. Besides, the “Labelling (staining) of Jurkats” value in experiment [6] is on record as “√”. Moreover, the “Labelling (staining) of Epithelial cells” value in experiment [7] is “√”. The “Labelling (staining) of MDA-MB468” value in experiment [8] is “√”.
`CCCCCCCCCCCCCCCCCCCCCC[N+]1=C(/C=C/C=C2/N(CCCCCCCCCCCCCC)c3ccccc3C2(C)C)C(C)(C)c2ccccc21.[I-]` [PKH26]: in experiment [1], the “Labelling (staining) of Hela” value was “√*”. Besides, the “Labelling (staining) of COS 7” value in experiment [2] is on record as “√”. In experiment [3], the “Labelling (staining) of U937” value was “√”. Also, the “Labelling (staining) of CHO” value in [4] is reported as “√”. In experiment [5], the “Labelling (staining) of NIH 3T3” value is recorded as “√”. The “Labelling (staining) of Jurkats” value in experiment [6] is on record as “√”. Besides, in [7], the “Labelling (staining) of Epithelial cells” value is on record as “√ not all”. Further, the “Labelling (staining) of MDA-MB468” value in [8] was “√”.
As for “5′-(Cholesteryl-TEG)2-Spacer C18-Fluos-Biotin_TEG-3′ INVERS [29.891254]”, the “Stability of Jurkat culture cells during centrifugation” value in experiment [9] is recorded as “stable during centrifugation processes”. In addition, the “WBC per well” value in [10] (Sample 1, first block of the table (r4-r12), footnote: 1 nmol/10e6 WBCs) was 157660 and 190148 and 170850; in [10] (Sample 1, second block of the table (r13-r21), compound concentration: 1 nmol/10e6 WBCs), 244649 and 234262 and 260760; in experiment [10] (setting [15]), 200184 and 205917 and 185100; in experiment [10] (setting [16]) it was 244396 and 244304 and 247428. In addition, the “Mean (WBC per well)” value is recorded as 197067.00 in experiment [10] (setting [15]) and 245376.00 in experiment [10] (setting [16]).
Regarding `CCCCC/C=C\C/C=C\CCCCCCCCN1C(=CC=CC2=[N+](CCCCCCCC/C=C\C/C=C\CCCCC)c3ccccc3C2(C)C)C(C)(C)c2ccccc21.[O-][Cl+3]([O-])([O-])[O-]` [Linol, 1,1′-dilinoleyl-3,3,3′,3′-tetramethylindocarbocyanine perchlorate], the “Labelling (staining) of Hela” value in experiment [1] is given as “√”. The “Labelling (staining) of COS 7” value in experiment [2] is listed as “√”. Also, the “Labelling (staining) of U937” value in experiment [3] was “√”. Also, the “Labelling (staining) of CHO” value in experiment [4] is “√”. Moreover, the “Labelling (staining) of NIH 3T3” value in experiment [5] was “√”. Further, the “Labelling (staining) of Jurkats” value in experiment [6] is on record as “√”. In addition, in experiment [7], the “Labelling (staining) of Epithelial cells” value was “√”. Also, in [8], the “Labelling (staining) of MDA-MB468” value is listed as “√”.
In the case of “5′-(Cholesteryl-TEG)2-Spacer C18-dT-Biotin-TEG-3′ [compound 1234]”, the “Stability of Jurkat culture cells during centrifugation” value in experiment [9] is reported as “stable during centrifugation processes”. Also, the “Stability of MDA-MB468 culture cells during centrifugation” value in experiment [11] is recorded as “stable during centrifugation processes”.
As to “3′-(Cholesteryl-TEG)2-PEG2000-Fluos-Biotin-TEG-5′ INVERS [compound 1248]”, in experiment [9], the “Stability of Jurkat culture cells during centrifugation” value is reported as “stable during centrifugation processes”.
For the molecule “5′-CholesterylTEG-CholesterylTEG-PEG2000-Fluos-BiotinTEG-3′ [BMO 29.891180]”, the “staining (Remarks)” value in [12] is on record as “strong”.
For “3′-(Myristic acid)2-PEG2000-dT-Biotin-TEG-5′ INVERS [compound 1255]”, the “Stability of Jurkat culture cells during centrifugation” value in experiment [9] was “stable during centrifugation processes”. Also, in experiment [11], the “Stability of MDA-MB468 culture cells during centrifugation” value is “stable during centrifugation processes”. For the same molecule, the results for the “Performance in WBC recovery rate after centrifugation (ranking)” value in experiment [13] (300×g) and in [13] (500×g) were “followed by compound 1255” and “followed by molecule 1255”, respectively.
For the molecule `CCCCCCCCCCCCCCCCCCN1C(=CC=CC2=[N+](CCCCCCCCCCCCCCCCCC)c3ccccc3C2(C)C)C(C)(C)c2ccccc21.[O-][Cl+3]([O-])([O-])[O-]` [1,1′-Dioctadecyl-3,3,3′,3′-tetramethylindocarbocyanin perchlorate], the “Labelling (staining) of Hela” value in experiment [1] is reported as “√”. For the same molecule, the “Labelling (staining) of WBCs” value in experiment [14] is recorded as “√ not all”. Also, the “Labelling (staining) of COS 7” value in experiment [2] is “√”. Besides, in [3], the “Labelling (staining) of U937” value is “√”. For the same molecule, the “Labelling (staining) of CHO” value in experiment [4] is recorded as “√”. For the same molecule, the “Labelling (staining) of NIH 3T3” value in experiment [5] is given as “√*”. In experiment [6], the “Labelling (staining) of Jurkats” value was “√”. Moreover, the “Labelling (staining) of Epithelial cells” value in experiment [7] is “√”. For the same molecule, the “Labelling (staining) of MDA-MB468” value in experiment [8] was “√”.
